Measurements: patent publication US20240122178A1, “CAFFEIC ACID-BASED COMPOSITE MATERIAL AND PREPARATION METHOD THEREOF” (ZHEJIANG UNIVERSITY, priority 2021, published 2024)

Assay: caffeic acid loading rate of carrier incubated with caffeic acid solution in ethanol
Assay type: physicochemical
Conditions: optimal loading conditions: molar ratio γ-cyclodextrin to caffeic acid 1:64, loading time 900 minutes, 40° C.
Protocol: In one embodiment, under the conditions of reaction temperature of 40° C. and reaction time of 900 minutes, the effects of different ratios of the cyclodextrin metal-organic framework material to caffeic acid (a molar ratio of γ-cyclodextrin in the cyclodextrin metal-organic framework material to caffeic acid is 1:4, 1:8, 1:32, 1:64 and 1:128, respectively) on the caffeic acid loading rate are compared. From the results, it can be seen that when the molar ratio of γ-cyclodextrin to caffeic acid in the cyclodextrin metal-organic framework composite is 1:4, the caffeic acid loading rate […]; with the increase of caffeic acid dosage, the caffeic acid loading rate gradually increases, and the increase of the loading rate is no longer obvious after increasing to 1:64. Therefore, the molar ratio of γ-cyclodextrin in the cyclodextrin metal-organic framework material to caffeic acid is selected from 1:4 to 1:128, further from 1:32 to 1:128, further from […], still further from 1: 60-70, and most preferably is 1:64.
In one embodiment, the effects of different incubating time (10, 20, 60, 180, 360, 720, 900, 2160 minutes) on the caffeic acid loading rate are compared under the conditions: the molar ratio of γ-cyclodextrin in the cyclodextrin metal-organic framework material to caffeic acid being 1:64 and the reaction temperature being 40° C. […]

In the case of `OC[C@H]1O[C@@H]2O[C@H]3[C@H](O)[C@@H](O)[C@@H](O[C@H]4[C@H](O)[C@@H](O)[C@@H](O[C@H]5[C@H](O)[C@@H](O)[C@@H](O[C@H]6[C@H](O)[C@@H](O)[C@@H](O[C@H]7[C@H](O)[C@@H](O)[C@@H](O[C@H]8[C@H](O)[C@@H](O)[C@@H](O[C@H]9[C@H](O)[C@@H](O)[C@@H](O[C@H]1[C@H](O)[C@H]2O)O[C@@H]9CO)O[C@@H]8CO)O[C@@H]7CO)O[C@@H]6CO)O[C@@H]5CO)O[C@@H]4CO)O[C@@H]3CO` [γ-cyclodextrin], the “caffeic acid loading rate” value is reported as 7.28%.
